The source made the active and inactive calls.
What was measured:
[1] = molecular target: T1, Short transient receptor potential channel 4 (Mus musculus, UniProt Q9QUQ5); experiment: mouse TRPC4 channel activators, dose response, cell-based, HEK293 TRPC4/mu-opioid, Fluo-4 calcium (AID 434937); type: functional
T1 sequence (Q9QUQ5 whole entry): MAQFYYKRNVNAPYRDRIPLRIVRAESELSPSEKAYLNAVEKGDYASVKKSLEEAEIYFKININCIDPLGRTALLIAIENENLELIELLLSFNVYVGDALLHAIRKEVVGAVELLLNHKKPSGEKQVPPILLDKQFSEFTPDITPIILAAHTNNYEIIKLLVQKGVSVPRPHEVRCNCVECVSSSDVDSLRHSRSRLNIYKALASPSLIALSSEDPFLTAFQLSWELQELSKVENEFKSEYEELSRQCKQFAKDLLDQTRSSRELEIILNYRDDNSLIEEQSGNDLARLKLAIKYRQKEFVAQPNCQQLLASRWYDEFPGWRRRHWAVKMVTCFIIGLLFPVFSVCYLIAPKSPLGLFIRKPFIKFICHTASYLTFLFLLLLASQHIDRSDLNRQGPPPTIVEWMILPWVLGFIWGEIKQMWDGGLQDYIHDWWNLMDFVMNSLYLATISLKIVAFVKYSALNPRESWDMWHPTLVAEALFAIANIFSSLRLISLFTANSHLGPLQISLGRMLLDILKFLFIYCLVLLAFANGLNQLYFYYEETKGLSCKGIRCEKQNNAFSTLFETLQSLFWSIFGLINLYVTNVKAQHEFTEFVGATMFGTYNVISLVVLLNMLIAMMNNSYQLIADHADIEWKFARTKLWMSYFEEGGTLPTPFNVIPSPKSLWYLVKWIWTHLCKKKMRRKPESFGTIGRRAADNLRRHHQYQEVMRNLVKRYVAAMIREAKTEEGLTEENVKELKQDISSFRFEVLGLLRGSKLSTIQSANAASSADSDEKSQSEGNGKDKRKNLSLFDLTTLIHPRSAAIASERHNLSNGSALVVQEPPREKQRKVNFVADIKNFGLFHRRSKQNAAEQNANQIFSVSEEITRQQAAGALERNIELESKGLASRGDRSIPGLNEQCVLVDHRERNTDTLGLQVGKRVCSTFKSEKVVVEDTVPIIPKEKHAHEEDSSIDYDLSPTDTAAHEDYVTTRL

[2] = microbe, parasite or virus in culture; type: functional; conditions: Mycobacterium tuberculosis
HEK293 [3] = experiment: cells; type: functional, cell-based; conditions: Homo sapiens
[4] = molecular target: Heat shock protein HSP 90-alpha (Homo sapiens, UniProt P07900); type: functional, organism-based
HEK293 [5] = experiment: NOD1 signaling inhibitors, primary screen, cell-based, luminescence, uHTS (AID 1578); type: functional; conditions: Homo sapiens
HEK293 [6] = experiment: NOD2 signaling inhibitors in MDP-stimulated cells, cell-based, uHTS, luminescence (AID 2001); type: functional; conditions: Homo sapiens
HEK293 [7] = experiment: cells; type: functional, cell-based; conditions: Homo sapiens; remark: listed apart in the source
[8] = Luminescence Cell-Based Dose Retest to Confirm Inhibitors of Cancer Stem Cells. [Related pubchem assays (depositor defined):AID2717, AID2721]; type: functional; conditions: Homo sapiens
Trypsin = Trypsin (Sus scrofa, UniProt P00761); experiment: porcine trypsin inhibitors, dose response, selectivity assay for Rce1 protease inhibitor project, biochemical, quenched peptide fluorescence, cherry-pick (AID 488789)
Chain of Trypsin (P00761 whole entry): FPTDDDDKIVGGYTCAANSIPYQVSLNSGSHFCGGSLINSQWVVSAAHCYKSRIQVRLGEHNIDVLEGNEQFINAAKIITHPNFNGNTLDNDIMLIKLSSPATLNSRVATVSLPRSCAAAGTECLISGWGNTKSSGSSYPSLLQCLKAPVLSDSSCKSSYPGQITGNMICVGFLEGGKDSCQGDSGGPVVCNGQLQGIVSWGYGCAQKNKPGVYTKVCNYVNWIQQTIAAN

CAAX prenyl protease 2 = molecular target: T2, CAAX prenyl protease 2 (Homo sapiens, UniProt Q9Y256); experiment: human Rce1 protease inhibitors, dose response, biochemical, yeast membranes, quenched-peptide fluorescence, cherry-pick (AID 588849)
T2 sequence (Q9Y256 whole entry): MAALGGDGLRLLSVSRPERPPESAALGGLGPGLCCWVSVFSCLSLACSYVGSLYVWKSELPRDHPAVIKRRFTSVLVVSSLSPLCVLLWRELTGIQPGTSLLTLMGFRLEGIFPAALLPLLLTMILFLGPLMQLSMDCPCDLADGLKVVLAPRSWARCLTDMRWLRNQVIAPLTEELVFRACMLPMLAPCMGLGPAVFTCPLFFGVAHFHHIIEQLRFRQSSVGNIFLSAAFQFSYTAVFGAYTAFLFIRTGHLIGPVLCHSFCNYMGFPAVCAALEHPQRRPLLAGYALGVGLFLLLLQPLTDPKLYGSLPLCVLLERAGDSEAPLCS

[9] = molecular target: T3, Endoribonuclease toxin MazF (Escherichia coli K-12, UniProt P0AE70); experiment: MazF toxin RNase activators, dose response, biochemical, fluorescence, single-stranded RNA substrate, uHTS hits (AID 588481); type: functional
T3 sequence (P0AE70 whole entry): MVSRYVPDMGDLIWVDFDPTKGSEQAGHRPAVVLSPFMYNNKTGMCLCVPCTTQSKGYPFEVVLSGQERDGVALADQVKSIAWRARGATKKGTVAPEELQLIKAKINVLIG

[10] = molecular target: T3, Endoribonuclease toxin MazF; experiment: fluorescent RNA oligo signal without MazF, dose response, counter-screen for MazEF activator project, biochemical, fluorescence, single-stranded RNase substrate (AID 588502); type: functional
[11] = cytotoxicity toward NIH3T3 fibroblasts, dose response, counter-screen, cell-based, ATP luminescence, mouse fibroblasts (AID 2010); type: functional;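 also: cells exposed to compound for about 90 hours before reading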
[12] = inhibitors of intracellular T. cruzi replication, confirmation, NIH3T3 host cells, beta-gal luminescence (AID 2044); type: functional, cell-based;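 also: intracellular parasites grown in NIH/3T3 mouse fibroblasts as host cells; luminescent beta-galactosidase reporter signal from transgenic T. cruzi replicating inside host cells; inhibitors lower the luminescence signal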
cells [13] = experiment: cells
H4 = experiment: Luminescence Cell-Based Dose Response HTS to Identify Activators of 5'UTR Stem-Loop Driven Prion Protein mRNA Translation in H4 Neuroglioblastoma Cells. [Related pubchem assays: 1829 (Project Summary), 1814 (Primary HTS)]; type: functional; conditions: Homo sapiens
Vero [14] = experiment: cells; type: functional, cell-based; conditions: Chlorocebus sabaeus
cells [15] = type: functional, cell-based
cells [16] = type: functional, cell-based; remark: listed apart in the source
[17] = Luminescence Cell-Based Dose Response HTS to Identify Activators of Luciferase Translation or Activity in H4 […] Cells. [Related pubchem assays: 1829 (Project Summary), 1814 (Primary HTS)]; type: functional
Vero [18] = experiment: cells; type: functional; conditions: Chlorocebus sabaeus
[19] = Luminescence Cell-Based Dose Confirmation HTS to Identify Activators of 5'UTR Stem-Loop Driven Alpha-Synuclein mRNA Translation in H4 Neuroglioblastoma Cells. [Related pubchem assays: 1829 (Project Summary), 1814 (Primary HTS)]; type: functional
[20] = HEp-2 cell cytotoxicity, dose response, cytotoxicity control for RSV inhibitor project, HTS (AID 2410); type: functional; conditions: human respiratory syncytial virus

With `O=C(Nc1nnc(-c2ccccc2Cl)o1)c1nc2ccccc2s1` the EC50 [1] was 4.73 µM (active) and the CC50 [2] was > 40 µM (active).

In the case of `CCOC(=O)C(=Cc1ccc(-n2cncn2)cc1)C(=O)OCC`, the IC50 (HEK293 [3]) is reported as 5.19 µM (active), the AC50 [4] is reported as 7.37 µM (active) and the EC50 (HEK293 [5]) is reported as > 20 µM (inactive). The IC50 (HEK293 [6]) was 10.9 µM (inactive), the IC50 (HEK293 [7]) was > 20 µM (inactive) and the AC50 [8] was 3.47 µM (active).

In the case of `Nc1ccccc1Oc1ccc2ccccc2c1`, the AC50 (Trypsin) is reported as 6.89 µM (active) and the AC50 (CAAX prenyl protease 2) is reported as 5.84 µM (active).

With `Cc1ccc(S(=O)(=O)NN)c(C)c1N1CCCC1=O` the EC50 [9] was 58.2 µM (inactive) and the EC50 [10] was 10.6 µM (active).

In the case of `CN(C)CCCN(C(=O)c1ccc(S(=O)(=O)N2CCOCC2)cc1)c1nc2ccc(F)cc2s1`, the EC50 [11] is reported as > 30 µM (not active), the EC50 [12] is reported as < 0.1 µM (active) and the EC50 [1] is reported as 9.44 µM (active). For the same molecule, the EC50 (cells [13]) was 0.02 µM (active).

In the case of `CCOC(=O)C(=Cc1ccc(OCc2ccc([N+](=O)[O-])cc2)c(OC)c1)C(=O)OCC`, the IC50 (HEK293 [3]) is reported as 2.07 µM (active), the EC50 (H4) is reported as 0.246 µM (active) and the IC50 (Vero [14]) is reported as > 25 µM (active). For the same molecule, the EC50 (cells [15]) was > 350 µM (not active), the EC50 (cells [16]) was 70 µM (active) and the EC50 (HEK293 [5]) was 10.6 µM (active). For the same molecule, the IC50 (HEK293 [6]) was 5.14 µM (active), the IC50 (HEK293 [7]) was 12.8 µM (active) and the EC50 [17] was 1.18 µM (active). The CC50 (Vero [18]) was 9.93 µM (active), the AC50 [8] was 1.79 µM (active) and the EC50 [19] was 0.171 µM (active).

With `Cc1ccc([N+](=O)[O-])cc1N/C=C1\CCCCC1=O` the CC50 [20] was 18.4 µM (active), the EC50 [9] was > 99 µM (inactive) and the EC50 [10] was > 99 µM (inactive).
